For one data set, the target named is T1, OR52E8 (Homo sapiens, UniProt Q6IFG1).
T1 construct: Improved functional expression of modified OR-genes containing the truncated, optimized C-terminus; expressed in transfected cells; host or cells: HEK293T stably expressing human RTP1S(V227I) and RTP2(L220R)
Format: cell-based. The text has this:
Activation of OR52E8 by odorant acids present in human sweat (Natsch et al. A specific bacterial aminoacylase cleaves odorant precursors secreted in the human axilla. The Journal of biological chemistry 2003; 278(8):5718-5727) was investigated with different variants of the parent receptor sequence. The wild-type variant was not activated by the acids. […] However, using the optimized sequence from Examples 1-5 led to a strong signal upon addition of 3-methyl-3-hydroxy hexanoic acid.
These two improvements were further combined and the combination was tested on OR52A5 and two further class I receptors. […] In the case of OR52A4, 4-ethyloctanoic acid, which is detected at low concentrations by the human nose, is detected with a high luciferase response already at 0.19 μM by the receptor with the C-terminal modification showing very sensitive detection of this carboxylic acid by the modified class I receptor.

Data set [1] has as its target T2, OR7C1 (Homo sapiens, UniProt O76099, D296E/G302K/M297V/R299D/T295K/V126I).
T2 construct: Improved functional expression of modified OR-genes containing the truncated, optimized C-terminus; expressed in transfected cells; host or cells: HEK293T stably expressing human RTP1S(V227I) and RTP2(L220R)
T2 sequence (O76099 with tags, fused parts or gaps V126I/T295K/D296E/M297V/R299D/G302K): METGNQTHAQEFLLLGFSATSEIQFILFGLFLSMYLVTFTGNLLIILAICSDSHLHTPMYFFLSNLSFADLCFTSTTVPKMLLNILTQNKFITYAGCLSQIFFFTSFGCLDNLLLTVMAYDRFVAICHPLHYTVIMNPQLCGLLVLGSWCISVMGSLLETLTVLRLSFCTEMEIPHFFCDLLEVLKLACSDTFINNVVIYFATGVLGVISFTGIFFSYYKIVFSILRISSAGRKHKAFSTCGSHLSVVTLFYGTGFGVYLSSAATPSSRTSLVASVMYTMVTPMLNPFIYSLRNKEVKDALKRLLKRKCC
The data set is described as follows: CRE-luciferase assay, HEK293T cells expressing OR7C1 (wild-type / modified C-terminus). Format: cell-based.

Data set [2] has as its target T2, OR7C1. Described as above. The format is cell-based. The source says:
To test for possible variants of the sequence […]CC (SEQ ID NO: 86) leading to similar improved functional expression, different point mutations were introduced into the first 16 amino acids of this sequence (corresponding to […], SEQ ID NO: 10) and the variants were fused after the TM7 with OR7C1. […] The test concentrations were selected to fall into the range of partial activity of the wild-type sequence.
This is another data set of the same source.

The next data set deals with OR7A17 and OR7C1. The data set is described as follows: Cells expressing one or both of OR7A17 and OR7C1 (C-terminal domain SEQ ID NO: 221), luciferase. The format is cell-based, human. The source says: In order to screen for a specific odor description, some or all members of a given set of OR which was identified to be specific for a given odor description as shown in example 25 can be combined in a screening for new odorants or new odorant mixtures. The screening on the different OR can be performed sequentially or in parallel assays with the individual OR of the OR set. Additionally, some or all of the OR of the OR set specific for the odor-description can also be co-expressed in a single cell line. Thus, to screen for woody-ambery molecules, cells were either separately or simultaneously transfected with two plasmids coding for the optimized OR7A17 and OR7C1 both with the C-terminal domain of SEQ ID NO: 221. […] Cells expressing both receptors become functional sensors for the Ambery-woody odor description and detect both ligands down to low concentrations.

In a further data set the target is T3, OR1C1 (Homo sapiens, UniProt Q15619).
T3 construct: Improved functional expression of modified OR-genes containing the truncated, optimized C-terminus; expressed in transfected cells; host or cells: HEK293T stably expressing human RTP1S(V227I) and RTP2(L220R)
The format is cell-based. The settings on record: changed C-term. vs wild-type.

Data set [3] deals with library of all human class II OR. In words: Screening of the library of all class II OR (n=408, C-terminal domain SEQ ID NO: 221) with single odorants, luciferase induction. Format: cell-based. As to the method: All human class II OR and all key genetic variants of these OR were synthesized with a sequence coding for an identical modified C-terminal domain […] (SEQ ID NO: 221) in the vector pcDNA3.1(+) to generate a library of all class II OR with an improved C-terminal domain.
Parallel transfection experiments were conducted with all these plasmids (n=408) and cells expressing the different OR were stimulated with one given ligand at a time, tested at the maximal, clearly non-cytotoxic concentration. In total 26 different ligands were tested on the full library of class II receptors.

In another data set the target is T4, OR5AN1 (Homo sapiens, UniProt Q8NGI8).
T4 construct: Lucy part is a cleavable signal peptide) (N); expressed in transfected cells
In words: Luciferase assay with chimeric OR5AN1 carrying the C-terminal sequence of OR1N2. The format is cell-based. The source says:
Similarly, the C-terminal sequence of OR5AN1 was replaced with the C-terminal sequence of the ambrettolide receptor OR1N2.

The next data set concerns the target T5, OR5A2 (Homo sapiens, UniProt Q8NGI9).
T5 construct: Improved functional expression of modified OR-genes containing the truncated, optimized C-terminus; expressed in transfected cells; host or cells: HEK293T with stably integrated human RTP1S(V227I) and RTP2(L220R)
T5 sequence (Q8NGI9 with tags, fused parts or gaps): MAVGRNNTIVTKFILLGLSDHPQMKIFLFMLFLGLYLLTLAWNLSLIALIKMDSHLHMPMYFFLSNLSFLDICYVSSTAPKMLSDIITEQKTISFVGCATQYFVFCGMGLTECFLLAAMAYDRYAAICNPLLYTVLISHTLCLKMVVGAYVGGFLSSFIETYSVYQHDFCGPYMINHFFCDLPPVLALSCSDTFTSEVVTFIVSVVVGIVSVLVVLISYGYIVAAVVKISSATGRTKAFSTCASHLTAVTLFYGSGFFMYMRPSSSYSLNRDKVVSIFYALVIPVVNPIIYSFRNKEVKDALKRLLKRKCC
In words: CRE-luciferase assay, HEK293T cells expressing OR5A2 (wild-type / modified C-terminus). Format: cell-based.

The target of data set [4] is T6, OR10J5 (Homo sapiens, UniProt Q8NHC4).
T6 construct: Improved functional expression of modified OR-genes containing the truncated, optimized C-terminus; expressed in transfected cells; host or cells: HEK293T stably expressing human RTP1S(V227I) and RTP2(L220R)
T6 sequence (Q8NHC4 with tags, fused parts or gaps): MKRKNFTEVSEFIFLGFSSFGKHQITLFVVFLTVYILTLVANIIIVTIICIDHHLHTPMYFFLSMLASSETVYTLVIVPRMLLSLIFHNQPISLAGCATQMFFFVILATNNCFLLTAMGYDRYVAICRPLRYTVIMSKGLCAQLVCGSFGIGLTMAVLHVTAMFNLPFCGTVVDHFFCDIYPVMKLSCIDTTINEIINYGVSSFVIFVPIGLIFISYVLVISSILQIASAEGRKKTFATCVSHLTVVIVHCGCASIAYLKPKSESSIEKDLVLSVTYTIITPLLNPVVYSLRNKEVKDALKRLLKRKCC
The format is cell-based. The procedure: Activation of OR10J5 with the C-terminal domain of SEQ ID NO: 86 by (S,E)-10-hydroxy-4,8-dimethyldec-4-enal or (R,E)-10-hydroxy-4,8-dimethyldec-4-enal was measured in a dose-response analysis.
Potency of the two tested OR10J5 ligands is expressed as the EC20% value, which is the concentration that leads to a 20% increase of the luciferase activity relative to the positive control (100 μM, Mahonial; (4E)-9-hydroxy-5,9-dimethyl-4-Decenal). […] Because of the difference in EC20%, a much lower concentration of the (S,E)-isomer is needed to activate the receptor compared to the concentration needed of the (R,E)-isomer. […] This example further illustrates the usefulness of the improved assay to determine the most odor-active isomers.

The target in data set [5] is T6, OR10J5. Format: cell-based. The conditions noted are these: changed C-term. vs wild-type.
In data set [6] the test system is human class II OR identified in the library screening. In words: Confirmatory dose-response analysis of library-hit OR with cognate ligand, wild-type vs C-terminal domain SEQ ID NO: 221 (Table 17).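 Also: Wild-type receptor sequences expressed from the pcDNA3.1(+) vector and compared with the C-terminally modified receptors in dose-response tests using each receptor's cognate ligand.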
Protocol: Selected ligand—OR pairs were then tested in a confirmatory test with a dose response analysis.
For selected receptors, the wild-type sequence was synthesized and cloned into pcDNA3.1 (+). Dose-response analysis with the cognate ligand was then performed for both the wild-type and the modified sequence.
Data set [7] deals with library of human class II OR. The data set is described as follows: Screening of the class II OR library with a mixture of odorants of one odor description. Format: cell-based. The settings on record: OR with C-terminal domain SEQ ID NO: 221. The text has this:
Single odorants may trigger activation of multiple OR as shown by the case of Ambrofix in example 18, which activates the specific receptors OR7E24 and OR7A17. On the other hand, multiple odorants may be perceived as and described by certain common odor descriptors due to their common activation of a given set of OR. To trigger a specific odor sensation, thus a specific set of OR may need to be activated. This specific OR set can be identified by mixing several odorants with a given odor description. The mixture is then screened on the full library of OR. The identified set of OR can then be further used to screen for that particular odor description. For example, to identify a typical set of OR for the odor description of “fruity esters”, a mixture of the following compounds was made: Pentanoic acid, 2-methyl ethyl ester; Butanoic acid, 3-methyl-, ethyl ester; Acetic acid, phenoxy-, 2-propenyl ester; Hexanoic acid, ethyl ester; Acetic acid, (3-methylbutoxy)-, 2-propenyl ester; Acetic acid, (cyclohexyloxy)-, 2-propenyl ester; Butanoic acid, 2-methyl-, (3Z/E)-3-hexenyl ester; Cyclohexanecarboxylic acid, ethyl ester and Oxiranecarboxylic acid, 3-phenyl, ethyl ester. This mixture was screened against the full library of OR as described in example 18. […]

Results on nine molecules are retold here after patent publication US20260210939A1, “MODIFIED OLFACTORY RECEPTORS” (GIVAUDAN SA, priority 2022, published 2026).

Entries after “also recorded” stand apart in the source; their conditions may differ.

One may read the EC50 as the concentration that produces a half-maximal response.

T1 sequence (Q6IFG1 with tags, fused parts or gaps): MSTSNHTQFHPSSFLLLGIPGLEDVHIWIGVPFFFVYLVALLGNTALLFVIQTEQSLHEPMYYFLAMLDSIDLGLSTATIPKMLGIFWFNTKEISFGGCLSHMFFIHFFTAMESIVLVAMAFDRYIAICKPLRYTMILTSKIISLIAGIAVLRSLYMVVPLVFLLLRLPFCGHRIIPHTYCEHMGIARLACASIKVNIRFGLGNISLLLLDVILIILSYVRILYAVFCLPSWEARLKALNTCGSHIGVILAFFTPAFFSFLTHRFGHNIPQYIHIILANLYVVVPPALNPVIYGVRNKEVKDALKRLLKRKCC
T3 sequence (Q15619 with tags, fused parts or gaps): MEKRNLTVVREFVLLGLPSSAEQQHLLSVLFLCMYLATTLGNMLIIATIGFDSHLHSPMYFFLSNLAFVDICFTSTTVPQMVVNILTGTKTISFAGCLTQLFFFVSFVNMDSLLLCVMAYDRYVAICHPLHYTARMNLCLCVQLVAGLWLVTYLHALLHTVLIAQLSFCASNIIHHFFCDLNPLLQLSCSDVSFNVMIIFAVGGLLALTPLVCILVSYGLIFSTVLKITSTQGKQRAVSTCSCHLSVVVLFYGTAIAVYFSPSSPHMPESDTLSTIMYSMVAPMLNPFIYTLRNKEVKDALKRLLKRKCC
T4 sequence (Q8NGI8 with tags, fused parts or gaps limits assumed): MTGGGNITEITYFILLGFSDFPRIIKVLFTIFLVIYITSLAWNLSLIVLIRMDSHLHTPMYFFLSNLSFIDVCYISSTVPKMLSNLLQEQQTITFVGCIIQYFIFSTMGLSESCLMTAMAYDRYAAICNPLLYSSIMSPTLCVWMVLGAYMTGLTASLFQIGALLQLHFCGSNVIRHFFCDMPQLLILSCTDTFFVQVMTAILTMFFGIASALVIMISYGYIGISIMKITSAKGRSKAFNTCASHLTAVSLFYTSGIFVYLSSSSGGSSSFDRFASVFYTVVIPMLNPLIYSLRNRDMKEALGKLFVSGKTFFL

Take `CCCC(C)(O)CC(=O)O` (stereo not shown) [3-Methyl-3-Hydroxy-Hexanoic acid, 3-Methyl-3-hydroxyhexanoic acid]: the Comments on efficacy entry at OR52E8 is “No induction”. At OR52E8 (changed C-term. vs wild-type), the Fold-improvement potency is recorded as >>5 and the Fold-improvement threshold is given as >>5.

Regarding `CC(CO)C1=C2C(C)(C)C3CCC2(C3)C(C)(C)CC1` (stereo not shown) [Ambermax], the “Detection threshold; concentration for 2-fold induction” value turned out to be 0.17 µM on OR7C1 [1] (changed C-term. SEQ ID NO: 86) and 2.76 µM on OR7C1 [1] (wild-type). Besides, the Fold-improvement potency on OR7C1 [1] (changed C-term. vs wild-type) was determined as 2.7. The Comments on efficacy on OR7C1 [2] is on record as 3.5-fold lower. The “ligand specificity in cells expressing OR7A17 and/or OR7C1” value with OR7A17 and OR7C1 is recorded as “specific ligand for OR7C1”.

At OR1C1, `C=CC(C)(O)CCC=C(C)C` (stereo not shown) [Linalool] registered a Fold-improvement potency of 1.9 and a Fold-improvement threshold of 2.1.

For the molecule `C[C@@H]1CCCCCCCCCCCCC(=O)C1` [Muscone, reference compound], the “Activated OR and OR variants” value in data set [3] (ligand at maximal non-cytotoxic concentration, full class II library) is recorded as “OR5AN1, OR5A2”. Also, the “functional response of chimeric OR5AN1” value at OR5AN1 is given as “not showing any functional response”. For the same molecule, the “concentration at which induction starts” value on OR5A2 (OR5A2 with modified C-terminus) worked out at 0.03 µM. Further, the “concentration at which activation occurs” value on OR5A2 (modified OR5A2, SEQ ID NO: 86) was found to be 1 µM.

With `CC(=O)c1c(C)c([N+](=O)[O-])c(C(C)(C)C)c([N+](=O)[O-])c1C` [Musk ketone], the “functional response of chimeric OR5AN1” value on OR5AN1 is “not showing any functional response”.

As to `Cc1cc(CC(C)C)ccc1CCC=O` [Nympheal, 3-(4-isobutyl-2-methylphenyl)propanal], the Comments on efficacy result at OR10J5 [4] was “Only 1.8-fold”. For the same molecule, on OR10J5 [5], the Fold-improvement potency is listed as >>6 and the Fold-improvement threshold is on record as >>6.

`C[C@H]1CC[C@@]2(O)C(C)(C)[C@@H]3CC[C@@]2(C)[C@H]1C3` [Patchoulol]: in [3] (50 μM Patchoulol), the “induction in the library screening” value is “strong induction of OR14J1; also recorded: weak induction of OR11A1 and OR7A17”. Moreover, the “Detection threshold; concentration for 2-fold induction, changed C-term.” value in data set [6] (OR14J1, modified C-terminus SEQ ID NO: 221 (SEQ ID NO: 738)) worked out at 0.45 µM. In addition, in data set [6] (OR14J1, modified C-terminus SEQ ID NO: 221 vs wild-type, maximal induction), the Fold improvement efficacy stood at 33.4 fold. Besides, the EC50 in [6] (read-out: Potency, EC50 changed C-term, OR14J1, modified C-terminus SEQ ID NO: 221 (SEQ ID NO: 738)) was 2200 nM. In addition, in data set [6] (wild-type sequence, cognate ligand), the “activity of the wild-type OR” value was “inactive”.

B1: OR11G2: class II OR with C-terminal domain SEQ ID NO: 221 (protein, UniProt Q8NGC1 1-345, looked up)
Olfactory receptor 11G2: MHFLSQNDLNINLIPHLCLHRHSVIAGAFTIHRHMKIFNSPSNSSTFTGFILLGFPCPREGQILLFVLFTVVYLLTLMGNGSIICAVHWDQRLHAPMYILLANFSFLEICYVTSTVPSMLANFLSDTKIISFSGCFLQFYFFFSLGSTECFFLAVMAFDRYLAICRPLRYPTIMTRRLCTNLVVNCWVLGFIWFLIPIVNISQMSFCGSRIIDHFLCDPAPLLTLTCKKGPVIELVFSVLSPLPVFMLFLFIVGSYALVVRAVLRVPSAAGRRKAFSTCGSHLAVVSLFYGSVLVMYGSPPSKNEAGKQKTVTLFYSVVTPLLNPVIYSLRNKDMRKALKKFWGT
With B1, the “Fold luciferase induction (20 ppm fruity ester mix)” value in data set [7] amounted to 7.2.

B2: OR2L5: class II OR with C-terminal domain SEQ ID NO: 221 (protein, UniProt Q8NG80 1-312, looked up)
Olfactory receptor 2L5: MENYNQTSTDFILLGLFPPSKIGLFLFILFVLIFLMALIGNLSMILLIFLDTHLHTPMYFLLSQLSLIDLNYISTIVPKMASDFLYGNKSISFIGCGIQSFFFMTFAGAEALLLTSMAYDRYVAICFPLHYPIRMSKRMYVLMITGSWMIGSINSCAHTVYAFRIPYCKSRAINHFFCDVPAMLTLACTDTWVYEYTVFLSSTIFLVFPFTGIACSYGWVLLAVYRMHSAEGRKKAYSTCSTHLTVVTFYYAPFAYTYLCPRSLRSLTEDKVLAVFYTILTPMLNPIIYSLRNKEVMGALTRVIQNIFSVKM
For B2, the “Fold luciferase induction (20 ppm fruity ester mix)” value in data set [7] is given as 8.9.
